# Results reported in patent US10617677B2, “Nuclear transport modulators and uses thereof” (Biogen MA Inc., priority 2012, dated 2020).
# Entries after “also recorded” stand apart in the source; their conditions may differ.
# What was measured:
# [1] = test system: anti-collagen antibody induced arthritis; experiment: Anti-collagen antibody induced mouse model of rheumatoid arthritis (CAIA); assay type: in vivo, mice
# Experimental: Twenty-four (24) male Balb/c mice, aged 6 to 8 weeks were used. […] On study Day 0 (study commencement), all mice were subjected to a 2 mg intravenous injection of ArthritoMAb™ antibody cocktail (MD Biosciences # S1203001) followed by an intraperitoneal injection of LPS ([…]) on study Day 3. […] Treatments were administered once daily on days 4, 6, 8 and 10 for all groups, except where dosing vacations applied. If an animal's weight dropped below 87% of its day 0 starting weight, the animal was not dosed until it gained weight equivalent to 90% or more of day 0 weight.
# Arthritis development, clinical signs and body weights were monitored in all mice on study days 0, 3-8, 10 and 12. Observations included changes in skin, fur, eyes, mucous membranes, occurrence of secretions and excretions (e.g., diarrhea) and autonomic activity (e.g., lacrimation, salivation, piloerection, pupil size, unusual respiratory pattern). All paws (front left and right, and rear left and right) of each animal were examined for signs of arthritogenic responses prior to arthritis induction and test item or control item administration on study Day 0 and subsequently on study Days 3-8, 10 and 12 (study termination). Arthritis reactions were scored and recorded according to a 0-4 scale in ascending order of severity, as shown Table 5 below. Paw thickness was also measured using a dial caliper (Kroeplin, Munich, Germany).
# The dose administered was calculated based on the assumption that the animals weighed, on average, 20 g. […] Vehicle for the vehicle control group was prepared by dissolving 0.6 g Pluronic and 0.6 g PVP in 100 mL distilled deionised water. The MAb stock solution (10 mg/mL) was supplied by MD Biosciences, Division of Morwell Diagnostics GmbH. LPS was diluted with PBS to achieve the appropriate concentration. Thorough vortexing was required just prior to its injection. […] A fixed volume of 200 μL was administered to each mouse.
# Evaluation was primarily based on the mean values for arthritis scoring and paw thickness measurements. Where appropriate, analysis of the data by ANOVA with Tukey post hoc analysis was applied to determine significance of treatment effects.
# IMQ-induced psoriasis = experiment: Imiquimod (IMQ)-induced dermal inflammation/psoriasis model, Study 2; assay type: in vivo, mice; conditions: for Rate of reduction of DAI, % change from 1st dose administration: Compound 2 2.5 mg/kg, cyclophosphamide 10 mg/kg
# Experimental: Forty (40) male BALB/c mice (Biological E Limited, Hyderabad (CPCSEA registration number: 36/99/CPCSEA)) were divided into four (4) groups consisting of ten (10) mice each. Animals were randomized based on their body weight. The groups were designated as Group-I (Naïve), Group-II (IMQ; vehicle (PEG 400 and HPBCD)), Group-III (IMQ; Compound 2 (2.5 mg/kg)) and […] (IMQ; cyclophosphamide (10 mg/kg)).
# A small area on the dorsum of each mouse was shaved, ensuring that these areas were of equal size/area. Psoriasis was induced in Groups II to IV by topical application of 50 mg of IMQ cream daily from Day 1 to Day 6 on the dorsum of the animals. On Day 1 and Day 2 of the study, four hours after topical application of IMQ, Compound 2 or positive control (cyclophosphamide) or vehicle were administered to animals in pertinent groups. Of note, animals in Group II and Group III were subjected to subcutaneous injections, whereas animals in Group IV received oral administration. The Compound 2, vehicle and cyclophosphamide treatment was terminated on Day 2. These groups of animals were maintained on daily IMQ treatments until Day 6. On Day 7, the psoriasis-induced animals were re-randomized into 3 groups consisting of 10 animals each based on Cumulative Disease Activity Index (CDAI). From Day 7 to Day 9, animals received vehicle or positive control or Compound 2. Of note, on these days animals were not treated with IMQ. From Day 10 to Day 14, the animals were treated alternatively with IMQ (Days 10, 12 and 14), or vehicle, positive control or Compound 2 (Days 11, 13).
# All animals were observed daily for a period of 16 days for gross observations, body weight and feed and water intake. On Days 1 and 2, scorings of erythema, scaling, folding and thickening of skin were recorded 2 hours after administration of vehicle/positive control/test compounds, and on Days 3 to 14 scorings were recorded 4 hours after IMQ application, or administration of positive control, vehicle or Compound 2.
# Vehicle was prepared by dissolving 40 mg of HPBCD in 70.0 mL of distilled water. Compound 2 was prepared by dissolving 3.59 mg in 0.5% PVP and 0.5% Pluronic. Cyclophosphamide was prepared by dissolving 500 mg of CMC in 100 mL distilled water.
# The experimental results shown in Table 10 are expressed as mean±SEM. Data was assessed using one-way ANOVA, and post hoc analysis was performed using Dunnett's test.
# obese Zucker rats = experiment: Food intake and body weight in Zucker rats; assay type: in vivo
# Experimental: Twenty-one (21) male Zucker rats aged 7 months were allocated into 3 groups of N=7 based on equivalent body weights and food intakes. An additional group of N=7 age matched Zucker lean controls were included as a control. Body weights and food and water intakes were measured at approximately the same time each day (14:30-15:30 h). On treatment days, dosing was at 14:30-15:30 h (approximately 2 hours before lights off).
# The Zucker obese and lean controls were orally treated with vehicle (10 mL/kg dose volume; 0.5% Pluronic F68 and 0.5% PVP K29/32 in water) on each weekday. Both Compound 2 (1.5 mg/kg and 3 mg/kg) groups were orally treated on each weekday (10 mL/kg dose volume; 0.5% Pluronic F68 and 0.5% PVP K29/32 in water). Prior to the treatment phase, 4 days baseline data were collected. The treatment phase was for 16 days and a washout phase of 6 days was also included.
# [2] = 1.5-3 mg/kg oral, 16 day treatment period
smiles,measurement,setting,value
"O=C(/C=C\n1cnc(-c2cc(C(F)(F)F)cc(C(F)(F)F)c2)n1)NNC(=O)CN1CCOCC1 [Compound 2, (Z)-3-(3-(3,5-bis(trifluoromethyl)phenyl)-1H-1,2,4-triazol-1-yl)-N′-(2-morpholinoacetyl)acrylohydrazide]",total arthritis score compared to vehicle,"[1]; 4 mg/kg orally, days 6-12",significantly reduced total arthritis scores
same,"anti-arthritic activity (mean arthritis scores, paw thickness)",[1]; 7.5 mg/kg or 4 mg/kg orally,significant anti-arthritic activity
same,rear paw arthritis score compared to vehicle,"[1]; 7.5 mg/kg or 4 mg/kg orally, days 5-12",significantly reduced rear paw arthritis scores
same,total arthritis score compared to vehicle,"[1]; 7.5 mg/kg orally, days 5-12",significantly reduced total arthritis scores
same,"body weight, food consumption and water intake",IMQ-induced psoriasis; 2.5 mg/kg subcutaneous,without greatly impacting the consumption of food or water
same,rate of reduction of disease activity index versus vehicle,IMQ-induced psoriasis; 2.5 mg/kg subcutaneous,significantly greater than that observed in animals treated with vehicle; also recorded: diminished IMQ-induced disease manifestation
same,"Rate of reduction of DAI, % change from 1st dose administration","IMQ-induced psoriasis; Day 7, 4 hr. post-IMQ/drug administration readings",−30.9%
same,"Rate of reduction of DAI, % change from 1st dose administration","IMQ-induced psoriasis; Day 7, pre-IMQ/drug administration readings",0.0%
same,"Rate of reduction of DAI, % change from 1st dose administration","IMQ-induced psoriasis; Day 8, 4 hr. post-IMQ/drug administration readings",−35.3%
same,"Rate of reduction of DAI, % change from 1st dose administration","IMQ-induced psoriasis; Day 8, pre-IMQ/drug administration readings",−33.8%
same,"Rate of reduction of DAI, % change from 1st dose administration","IMQ-induced psoriasis; Day 9, 4 hr. post-IMQ/drug administration readings",−63.2%
same,"Rate of reduction of DAI, % change from 1st dose administration","IMQ-induced psoriasis; Day 9, pre-IMQ/drug administration readings",−58.8%
same,"Rate of reduction of DAI, % change from 1st dose administration","IMQ-induced psoriasis; Day 10, 4 hr. post-IMQ/drug administration readings",−88.2%
same,"Rate of reduction of DAI, % change from 1st dose administration","IMQ-induced psoriasis; Day 10, pre-IMQ/drug administration readings",−88.2%
same,"Rate of reduction of DAI, % change from 1st dose administration","IMQ-induced psoriasis; Day 11, 4 hr. post-IMQ/drug administration readings",−70.6%
same,"Rate of reduction of DAI, % change from 1st dose administration","IMQ-induced psoriasis; Day 11, pre-IMQ/drug administration readings",−73.5%
same,"Rate of reduction of DAI, % change from 1st dose administration","IMQ-induced psoriasis; Day 12, 4 hr. post-IMQ/drug administration readings",−73.5%
same,"Rate of reduction of DAI, % change from 1st dose administration","IMQ-induced psoriasis; Day 12, pre-IMQ/drug administration readings",−80.9%
same,"Rate of reduction of DAI, % change from 1st dose administration","IMQ-induced psoriasis; Day 13, 4 hr. post-IMQ/drug administration readings",−60.3%
same,"Rate of reduction of DAI, % change from 1st dose administration","IMQ-induced psoriasis; Day 13, pre-IMQ/drug administration readings",−61.8%
same,"Rate of reduction of DAI, % change from 1st dose administration","IMQ-induced psoriasis; Day 14, 4 hr. post-IMQ/drug administration readings",−63.2%
same,"Rate of reduction of DAI, % change from 1st dose administration","IMQ-induced psoriasis; Day 14, pre-IMQ/drug administration readings",−66.2%
same,"Rate of reduction of DAI, % change from 1st dose administration","IMQ-induced psoriasis; Day 15, pre-IMQ/drug administration readings",−64.7%
same,body weight gain versus Zucker vehicle group,obese Zucker rats; 1.5 mg/kg oral,no significant difference in weight gain
same,body weight gain versus Zucker vehicle group,obese Zucker rats; 3 mg/kg oral,significant difference in body weight gain; also recorded: lower weight gain
same,body weight compared to Zucker control group,obese Zucker rats; [2],dose-related decrease
same,daily food intake compared to Zucker control group,obese Zucker rats; [2],dose-related decrease; also recorded: dose dependent decrease
same,water intake,obese Zucker rats; [2],significantly increased water intake
